Results: patent US20230105869A1, “C5aR INHIBITOR REDUCTION OF URINARY sCD163” (CHEMOCENTRYX, INC., priority 2017, published 2023)
Entries after “also recorded” stand apart in the source; their conditions may differ. Marks after values point to notes of the source that are not given here.

Tests used:
urinary sCD163 = assay: Urine sCD163/creatinine ratio (ELISA) in clinical trial of AAV patients; format: in vivo, human; conditions: for Urine sCD163/creatinine, Geo mean: all on IV cyclophosphamide or rituximab; for Time course of decrease of urine sCD163 (sCD163/creatinine), in words: versus baseline
Protocol: The clinical trial results presented herein comprised 3 patient groups: (1) Full dose prednisone (60 mg), standard of care; (2) Avacopan 30 mg b.i.d. plus low dose prednisone (20 mg); (3) Avacopan 30 mg b.i.d. plus no prednisone. All patients received either IV cyclophosphamide or IV rituximab. sCD163 (ELISA) and creatinine were measured pre-dose, and at days 8, 15, 29, 57, and 85. The groupings are further described below in Table 1. [table] Mid-stream urine samples were collected with a clean catch method and were shipped to the central laboratory refrigerated the same day for analysis of creatinine, albumin and UACR. Another fraction of urine was centrifuged at 1200 g and 2-8° C. for 10 minutes. Supernatant was aliquoted into cryovials and stored at -70° C. until analysis. Urine sCD163 and MCP-1 were analyzed by ELISA in complete subject sets using ELISA kits from R&D systems. Urine sCD163/creatinine ratios, UACR, and urine MCP-1/creatinine ratios were log transformed for normal distribution. Change from baseline in urine sCD163/creatinine ratios for each time point within group was analyzed by the mixed effects model for repeated measures. P<0.05 was considered as statistically significant.

[1] = tested on: ANCA-associated vasculitis (AAV); assay: Disease activity and health-related quality of life in clinical trial of AAV patients; format: in vivo, human
Protocol: The clinical trial results presented herein comprised 3 patient groups: (1) Full dose prednisone (60 mg), standard of care; (2) Avacopan 30 mg b.i.d. plus low dose prednisone (20 mg); (3) Avacopan 30 mg b.i.d. plus no prednisone. All patients received either IV cyclophosphamide or IV rituximab. sCD163 (ELISA) and creatinine were measured pre-dose, and at days 8, 15, 29, 57, and 85. The groupings are further described below in Table 1. [table] […] Panel A plots the Birmingham Vasculitis Activity Score; Panel B plots the Urinary Albumin: creatinine Ratio; Panel C plots the Health-related quality-of-life measurement EQ-5D-5L visual analog scale , expressed as mean +/- SEM over the treatment period; Panel D and Panel E plot the health-related quality-of-life measurement Medical Outcomes Study SF-36 version 2 Physical Functioning and Role Emotional components, expressed as mean +/- SEM over the treatment period.

[2] = D8, Avacopan 30 mg BID where given
[3] = D15, Avacopan 30 mg BID where given
[4] = D29, Avacopan 30 mg BID where given
[5] = D57, Avacopan 30 mg BID where given
[6] = D85, Avacopan 30 mg BID where given

Row | SMILES | Urine sCD163/creatinine, Geo mean (urinary sCD163; [2]) | Urine sCD163/creatinine, Geo mean (urinary sCD163; [3]) | Urine sCD163/creatinine, Geo mean (urinary sCD163; [4]) | Urine sCD163/creatinine, Geo mean (urinary sCD163; [5]) | Urine sCD163/creatinine, Geo mean (urinary sCD163; [6]) | Time course of decrease of urine sCD163 (sCD163/creatinine), in words (urinary sCD163) | Time course of decrease of urine sCD163 (sCD163/creatinine), in words (urinary sCD163; listed as full-dose prednisone) | Disease activity (Birmingham Vasculitis Activity Score), in words ([1]; FIG. 1A) | Health-related quality of life (EQ-5D-5L, SF-36 v2), in words ([1]; FIGS. 1C-1E)
1 | C[C@]12C=CC(=O)C=C1CC[C@@H]1[C@@H]2C(=O)C[C@@]2(C)[C@H]1CC[C@]2(O)C(=O)CO [Placebo + FD Prednisone, Prednisone, reference compound] | 300 ng/mmol | 249 ng/mmol | 220 ng/mmol | 116*** ng/mmole | 120** ng/mmole | decreased much later (by week 8) | did not show improvement in urinary sCD163 until day 57 | – | –
2 | Cc1ccc(NC(=O)[C@H]2CCCN(C(=O)c3c(C)cccc3F)[C@H]2c2ccc(NC3CCCC3)cc2)cc1C(F)(F)F [Avacopan] | 180* ng/mmole | 165* ng/mmole | 117** ng/mmole | 125* ng/mmole | 97* ng/mmole | reduced sCD163/creatinine markedly by day 8; also recorded: rapid reduction of sCD163; also recorded: decreased within one week | – | rapid decrease in diseases activity | significant improvement in health-related quality of life
